# Source: PMC3912631, “Bench to Bed Evidences for Pharmacokinetic and Pharmacodynamic Interactions Involving Oseltamivir and Chinese Medicine” (Evidence-based Complementary and Alternative Medicine : eCAM, 2014)
# Like-named read-outs stand apart in the source and are kept apart here.
# Experiments:
# [1] = Rat pharmacokinetics of OA and OC in plasma and urine after oral OA alone or with CMF1; type: in vivo, Sprague-Dawley rats; details: for Tmax / Cmax / CL renal / half-life: male, Sprague-Dawley, in vivo, po, 30 mg/kg; for Tmax / Cmax / CL renal / half-life / AUC0–8 h / AUC0–inf / Renal recovery: oral, bid for 5 days; for Tmax: mean ± SD, read-out: T max (converted); for Cmax: read-out: C max; for CL renal: read-out: CL renal; for half-life: read-out: t 1/2, λz; for Renal recovery: urine over 8 h
# Protocol: The study was approved by the Animal Ethics Committee of The Chinese University of Hong Kong. Male Sprague-Dawley rats (230–250 g) were utilized and supplied by the Laboratory Animal Service Center at The Chinese University of Hong Kong. The rats were housed under standard conditions of temperature, humidity, and light and randomly divided into six groups with 10–12 rats in each group. […] The dose of 1.95 g/kg CMF1 is calculated based on the human dose recommended by the Chinese physicians and a doubled dose of CMF1 at […] is also used in the current study due to the potential large dosing range for Chinese medicine adopted in the practice. […]
# For dosing, OA (4 mg/mL) was freshly prepared by dissolving it in water and orally given to rats by gavage, bid (twice daily) for 4 days (9:00am and 6:00pm for each day), and CMF1 was also freshly suspended in water and then orally given to rats 2 h later of OA dosing (11:00 am and 8:00 pm for each day).
# For Groups of 1 to 3, a surgery for jugular vein cannulation was performed 1 h after CMF1 second dosing on day 4. A polyethylene catheter (0.50 mm ID, 1.00 mm OD, Portex Limited, Hythe, Kent, England) was cannulated into the right jugular vein under anesthesia. After surgery, the rat was placed in separated metabolic cage and allowed to recover and fasted overnight with free access to water. In the morning of day 5, blood samples (0.2 mL each) of the rats in the Groups 1–3 were collected via the catheter at 0, 15, 30, 60, 90, 120, 180, 240, 360, and 480 min after dosing of OA. After which, 0.2 mL of normal saline containing 20 units/mL of heparin was then injected into the catheter to flush the catheter. The collected blood samples were immediately placed in heparinized tubes containing dichlorvos (5 μL of 8 mg/mL dichlorvos in normal saline) for inhibition of carboxylesterase, followed by centrifugation to obtain the plasma and stored at −80°C. Urine samples were collected over 8 h postdose and combined with water used for rinsing the metabolic cage, further diluted to 200 mL, and then stored at −80°C until assay.
# The rat/human plasma and urine samples were treated and analyzed by an LC/MS/MS system as previously described. Briefly, 200 μL plasma/urine samples was mixed with cephalexin hydrate (internal standard, IS) working solution (final 2 μg/mL) and acidified with 1 mL of 10% perchloric acid in water (if necessary, dilution with blank human urine was required for urine samples). After mixing and centrifugation, the supernatant was loaded in prewashed Oasis MCX cartridge (1 cc, 30 mg, Waters) and the cartridge was rinsed subsequently with 1% formic acid, water, and methanol followed by vacuum dried for 20 min. The analytes were then eluted with 1 mL of 1% ammonia in methanol. The eluting solvent was dried by a vacuum concentrator and the residue was reconstituted with 200 μL of 0.1% formic acid : methanol (1 : 1 v/v) prior to HPLC/MS/MS analysis using an ABI 2000 Q-Trap triple quadrupole mass spectrometer (Applied Biosystems) coupled with PE-200 series micropumps and autosampler (Perkin-Elmer). The chromatographic separation was achieved by using a Nova-Pak CN HP column (75 × 3.9 mm i.d., 4 μm particle size, Waters) and the HPLC solvent system consisted of methanol (A) and 0.1% formic acid in water (B), with 50% A (for plasma samples) or 60% A (for urine samples) at 1 mL/min. The temperatures of autosampler and the analytical column were set at 4°C and ambient, respectively, and the sample injection volume was 20 μL. Prior to the mass spectrometric system, 60% of the LC eluent was split off and only 40% of the eluent was introduced into the ESI source.
# The plasma/urine OA and OC concentrations versus time profiles were analyzed using WinNonlin software standard edition version 2.1 (Pharsight Corporation). […] In human study, trough concentration (C trough) was defined as the minimum concentration obtained and was obtained at 12 h post-dose. […]
# [2] = Rat in situ intestinal perfusion model, effect of CMF1 on absorption of OA; type: in vivo; details: CMF1 6.8 mg/mL vs OA alone (Figure 2)
# Protocol: In view of the consistent effect of CMF1 on OA and OC, further confirmation was performed using rat in situ intestinal perfusion model as described previously. Perfusion concentrations were set at 6.8 mg/mL for CMF1. The flow rate of perfusate applied to the intestinal lumen was set at 0.3 mL/min. Samples obtained from the mesenteric vein were collected into the preweighted 2 mL centrifuge tubes (each containing 30 μL of 10 mg/mL saline solution of dichlorvos) at every 5 min. All collected samples were weighted and centrifuged at 13,000 rpm for 4 min immediately. The plasma samples were stored at −80°C refrigerator until further treated by SPE and analyzed by LC/MS/MS assay as described above.
# [3] = cited from earlier work
# [4] = Group 2: OA 30 mg/kg + CMF1 at 1.95 mg/kg
# [5] = Group 3: OA 30 mg/kg + CMF1 at 3.90 mg/kg
smiles,measurement,setting,value
"CCC(CC)O[C@@H]1C=C(C(=O)O)C[C@H](N)[C@H]1NC(C)=O [OC, oseltamivir carboxylate]","decrease of C max, urinary recovery and AUC of OC and OC/OA AUC ratio in OA + CMF1 groups vs OA alone",[1]; dose-dependent,26%-27%
same,Tmax,[1]; Group 1: OA alone 30 mg/kg,1.75 h
same,Cmax,[1]; Group 1: OA alone 30 mg/kg,1650 ± 400 ng/mL
same,CL renal,[1]; Group 1: OA alone 30 mg/kg,6.33 ± 1.27 mL/min
same,half-life,[1]; Group 1: OA alone 30 mg/kg,2.53 ± 0.418 h
same,Tmax,[1]; [4],1.77 h
same,Cmax,[1]; [4],1360 ± 280 ng/mL
same,CL renal,[1]; [4],6.27 ± 1.76 mL/min
same,half-life,[1]; [4],2.44 ± 0.318 h
same,Tmax,[1]; [5],2 h
same,Cmax,[1]; [5],1190 ± 230 ng/mL
same,CL renal,[1]; [5],6.34 ± 0.69 mL/min
same,half-life,[1]; [5],2.61 ± 0.28 h
same,AUC0–8 h,[1]; Group 1: OA alone 30 mg/kg,418.81 ± 90.86 μg∗min/mL
same,AUC0–inf,[1]; Group 1: OA alone 30 mg/kg,485.45 ± 113.03 μg∗min/mL
same,AUC0–8 h,[1]; [4],344.13 ± 91.46 μg∗min/mL
same,AUC0–inf,[1]; [4],395.67 ± 109.41 μg∗min/mL
same,AUC0–8 h,[1]; [5],304.84 ± 40.32 μg∗min/mL
same,AUC0–inf,[1]; [5],359.21 ± 41.30 μg∗min/mL
same,Renal recovery,[1]; Group 1: OA alone 30 mg/kg,35.26 ± 5.40 % of dose
same,Renal recovery,[1]; [4],29.73 ± 7.33 % of dose
same,Renal recovery,[1]; [5],25.94 ± 3.09 % of dose
same,accumulated amount in rat mesenteric blood in presence of CMF1,[2],decreased without statistical significance
same,effect of food on bioavailability,[3],no significant effect
same,maximum plasma oseltamivir carboxylate concentration,[3]; following 50 mg doses,about 230 μg/L
same,absolute oral bioavailability of OC from orally administered OA,[3]; oral OA,80%
same,half-life,[3]; oral OA,6 to 10 h
